Measured values published in the NIST ThermoML archive (doi:10.1016/j.jct.2007.09.010).
± gives the expanded uncertainty stated by the source.

Tests used:
[1] = refractive index (other wavelength) (dimensionless); conditions: 101.32 kPa, Liquid, Wavelength=632.8 nm, Standard Abbe refractometry
[2] = refractive index (other wavelength) (dimensionless); xn = mol fraction of the nth substance listed; conditions: 293.6 K, 101.32 kPa, Liquid, Wavelength=632.8 nm

N#Cc1ccccc1 [benzonitrile]
[1]
Conditions	refractive index
283.93 K	1.5294 ± 0.0004
285.77 K	1.5285 ± 0.0004
287.73 K	1.5276 ± 0.0004
289.74 K	1.5266 ± 0.0004
291.66 K	1.5256 ± 0.0004
293.65 K	1.5247 ± 0.0004

N#Cc1ccccc1 [benzonitrile] + CCCCCCCCCCCC
[2]
Conditions	refractive index
x1 = 0.0994	1.4247 ± 0.0007
x1 = 0.195	1.4302 ± 0.0007
x1 = 0.2945	1.436 ± 0.0007
x1 = 0.3954	1.4434 ± 0.0007
x1 = 0.4923	1.4507 ± 0.0007
x1 = 0.5859	1.4608 ± 0.0007
x1 = 0.6782	1.4711 ± 0.0007
x1 = 0.768	1.4832 ± 0.0007
x1 = 0.8871	1.5022 ± 0.0007

CCCCCCCCCCCC [dodecane]
[1]
Conditions	refractive index
282.19 K	1.4249 ± 0.0004
284.24 K	1.424 ± 0.0004
286.06 K	1.4233 ± 0.0004
288.08 K	1.4225 ± 0.0004
289.91 K	1.4217 ± 0.0004
291.91 K	1.4207 ± 0.0004
293.94 K	1.4199 ± 0.0004
